Measured values taken from ChEMBL document CHEMBL6096686, “Lanosterol 14α-Demethylase (CYP51)/Heat Shock Protein 90 (Hsp90) Dual Inhibitors for the Treatment of Invasive Candidiasis” (J Med Chem, 2025).
≈ marks a conversion by molar mass, not a printed value. Calls of active or inactive are those of the source. No cut-off for these calls is given here.

Key:
[1] = Cytotoxicity against HUVEC cells measured after 72 hrs by CCK8 assay; type: toxicity, cell-based; conditions: human
Candida albicans [2] = assay: Inhibition of biofilm formation in Candida albicans SC5314 at 0.5 ug/ml incubated for 24 hrs by XTT reduction method relative to control; type: functional
Candida albicans [3] = assay: Inhibition of yeast to hypha transition in Candida albicans SC5314 at 8 ug/ml incubated for 2.5 hrs by inverted microscopy relative to control; type: functional
Candida albicans [4] = assay: Antifungal activity against Candida albicans SC5314 assessed as decrease in EFG1 mRNA level at 4 ug/ml measured after 24 hrs by real time RT-PCR analysis; type: functional, organism-based; conditions: dose 4.0 µg/ml
Pichia kudriavzevii = assay: Antifungal activity against Candida krusei 10153 incubated for 48 hrs by CLSI based liquid microdilution technique; type: functional
[5] = Cytotoxicity against human L02 cells measured after 72 hrs by CCK8 assay; type: toxicity, cell-based
Candida albicans [6] = assay: Antifungal activity against Candida albicans SC5314 assessed as decrease in RLM1 mRNA level at 4 ug/ml measured after 24 hrs by real time RT-PCR analysis; type: functional, organism-based; conditions: dose 4.0 µg/ml
Candida albicans [7] = assay: Antifungal activity against Candida albicans SC5314 assessed as fungal growth inhibition at 32 ug/ml incubated for 48 hrs by spot-plating method relative to control; type: functional
[8] = molecular target: T1, Lanosterol 14-alpha demethylase (Candida albicans (strain SC5314 / ATCC MYA-2876) (Yeast), UniProt P10613); assay: Inhibition of CYP51 in Candida albicans SC5314 assessed as decrease in ERG27 mRNA level at 4 ug/ml measured after 24 hrs by real time RT-PCR analysis; conditions: at 4 µg/mL
T1 sequence (P10613 whole entry): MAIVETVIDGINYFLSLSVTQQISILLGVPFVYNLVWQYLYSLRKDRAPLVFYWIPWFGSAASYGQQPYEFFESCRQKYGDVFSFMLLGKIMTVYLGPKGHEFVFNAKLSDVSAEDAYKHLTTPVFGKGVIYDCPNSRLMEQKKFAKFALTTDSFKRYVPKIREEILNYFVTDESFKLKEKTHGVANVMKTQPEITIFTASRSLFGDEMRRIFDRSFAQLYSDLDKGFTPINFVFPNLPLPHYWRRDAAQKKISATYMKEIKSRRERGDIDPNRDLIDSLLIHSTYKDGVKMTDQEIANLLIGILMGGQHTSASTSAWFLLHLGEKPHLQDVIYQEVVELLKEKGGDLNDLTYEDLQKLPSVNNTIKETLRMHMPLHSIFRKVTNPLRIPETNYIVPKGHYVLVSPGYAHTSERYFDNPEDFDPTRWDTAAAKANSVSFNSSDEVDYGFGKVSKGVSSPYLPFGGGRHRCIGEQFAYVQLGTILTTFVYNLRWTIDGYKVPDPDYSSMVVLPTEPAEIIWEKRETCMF

[9] = molecular target: T1, Lanosterol 14-alpha demethylase; assay: Inhibition of CYP51 in Candida albicans SC5314 assessed as accumulation of eburicol at 4 ug/ml measured after 48 hrs by GC-MS analysis; conditions: at 4 µg/mL
Candida albicans [10] = assay: Antifungal activity against Candida albicans SC5314 assessed as decrease in HWP1 mRNA level at 4 ug/ml measured after 24 hrs by real time RT-PCR analysis; type: functional, organism-based; conditions: dose 4.0 µg/ml
Candida albicans [11] = assay: Antifungal activity against Candida albicans SC5314 infected in immunosuppressed ICR mouse assessed as reduction in fungal burden in kidney at 20 mg/kg, ip treated for 5 days consecutively (reference value: 6.71 log10CFU/ml); type: functional; conditions: time 5 day
Candida albicans [12] = assay: Antifungal activity against Candida albicans SC5314 assessed as reduction in fungal growth at 8 ug/ml incubated for 48 hrs (reference value: 8.17 log10CFU/ml); type: functional; conditions: dose 8 µg/ml
Candida albicans [13] = assay: Antifungal activity against Candida albicans SC5314 harboring HSP90 monoallelic knockout incubated for 48 hrs by CLSI based liquid microdilution technique; type: functional
[14] = molecular target: T1, Lanosterol 14-alpha demethylase; assay: Inhibition of CYP51 in Candida albicans SC5314 assessed as decrease in ERG3 mRNA level at 4 ug/ml measured after 24 hrs by real time RT-PCR analysis; conditions: at 4 µg/mL
Candida albicans [15] = assay: Antifungal activity against Candida albicans SC5314 infected in immunosuppressed ICR mouse assessed as reduction in fungal burden in kidney at 5 mg/kg, ip treated for 5 days consecutively (reference value: 6.71 log10CFU/ml); type: functional; conditions: time 5 day
Candida albicans [16] = assay: Selectivity index, ratio of MIC80 antifungal activity against Candida albicans SC5314 to MIC80 for antifungal activity against Candida albicans SC5314 harboring HSP90 monoallelic knockout; type: functional
Candida albicans [17] = assay: Antifungal activity against Candida albicans SC5314 infected in immunosuppressed ICR mouse assessed as reduction in fungal burden in kidney at 10 mg/kg, ip treated for 5 days consecutively (reference value: 6.71 log10CFU/ml); type: functional; conditions: time 5 day
[18] = molecular target: T1, Lanosterol 14-alpha demethylase; assay: Inhibition of CYP51 in Candida albicans SC5314 assessed as decrease in ERG26 mRNA level at 4 ug/ml measured after 24 hrs by real time RT-PCR analysis; conditions: at 4 µg/mL
Candida albicans [19] = assay: Inhibition of biofilm formation in Candida albicans SC5314 incubated for 24 hrs by XTT reduction method; type: functional, organism-based; conditions: dose <= 32.0 µg/ml
Candida albicans [20] = assay: Inhibition of yeast to hypha transition in Candida albicans SC5314 at 4 ug/ml incubated for 2.5 hrs by inverted microscopy; type: functional, organism-based; conditions: dose 4.0 µg/ml
[21] = molecular target: T1, Lanosterol 14-alpha demethylase; assay: Inhibition of CYP51 in Candida albicans SC5314 assessed as decrease in ERG6 mRNA level at 4 ug/ml measured after 24 hrs by real time RT-PCR analysis; conditions: at 4 µg/mL
Cryptococcus neoformans = assay: Antifungal activity against Cryptococcus neoformans H99 incubated for 72 hrs by CLSI based liquid microdilution technique; type: functional
Candida albicans [22] = assay: Antifungal activity against Candida albicans SC5314 assessed as decrease in EAP1 mRNA level at 4 ug/ml measured after 24 hrs by real time RT-PCR analysis; type: functional, organism-based; conditions: dose 4.0 µg/ml
Candida albicans [23] = assay: Antifungal activity against Candida albicans SC5314 assessed as decrease in ALS3 mRNA level at 4 ug/ml measured after 24 hrs by real time RT-PCR analysis; type: functional, organism-based; conditions: dose 4.0 µg/ml
Candida albicans [24] = assay: Antifungal activity against Candida albicans SC5314 assessed as decrease in ACE2 mRNA level at 4 ug/ml measured after 24 hrs by real time RT-PCR analysis; type: functional, organism-based; conditions: dose 4.0 µg/ml
Candida albicans [25] = assay: Antifungal activity against Candida albicans SC5314 assessed as fungal growth inhibition at 4 ug/ml incubated for 48 hrs by spot-plating method; type: functional, organism-based; conditions: dose 4.0 µg/ml
Candida albicans [26] = assay: Antifungal activity against Candida albicans SC5314 infected in immunosuppressed ICR mouse administered intraperitoneally treated for 5 days consecutively; type: functional, organism-based; conditions: dose 5-20 mg/kg, route ip, time 5.0 day
Candida albicans [27] = assay: Inhibition of biofilm formation in Candida albicans SC5314 at 32 ug/ml incubated for 24 hrs by XTT reduction method relative to control; type: functional
Candida albicans [28] = assay: Antifungal activity against Candida albicans SC5314 assessed as decrease in ZAP1 mRNA level at 4 ug/ml measured after 24 hrs by real time RT-PCR analysis; type: functional, organism-based; conditions: dose 4.0 µg/ml
Candida albicans [29] = assay: Antifungal activity against Candida albicans SC5314 assessed as decrease in BCR1 mRNA level at 4 ug/ml measured after 24 hrs by real time RT-PCR analysis; type: functional, organism-based; conditions: dose 4.0 µg/ml
Nakaseomyces glabratus = assay: Antifungal activity against Candida glabrata 7804 incubated for 48 hrs by CLSI based liquid microdilution technique; type: functional
Candida albicans [30] = assay: Inhibition of biofilm formation in Candida albicans SC5314 at 4 ug/ml incubated for 24 hrs by XTT reduction method relative to control; type: functional
Candida albicans [31] = assay: Antifungal activity against Candida albicans SC5314 assessed as decrease in TEC1 mRNA level at 4 ug/ml measured after 24 hrs by real time RT-PCR analysis; type: functional, organism-based; conditions: dose 4.0 µg/ml
Candida albicans [32] = assay: Antifungal activity against Candida albicans SC5314 assessed as fungal growth inhibition incubated for 48 hrs by spot-plating method; type: functional, organism-based; conditions: dose 4-32 µg/ml
Candida albicans [33] = assay: Antifungal activity against Candida albicans SC5314 assessed as decrease in CPH1 mRNA level at 4 ug/ml measured after 24 hrs by real time RT-PCR analysis; type: functional, organism-based; conditions: dose 4.0 µg/ml
Heat shock protein HSP90 = Heat shock protein HSP90 (Homo sapiens, UniProt P07900+P08238); assay: Inhibition of human HSP90 using FITC-Geldanamycin as substrate incubated for 6 hrs by fluorescence polarization assay; type: protein assay
[34] = molecular target: Heat shock protein 90 homolog (Candida albicans (strain SC5314 / ATCC MYA-2876) (Yeast), UniProt P46598); assay: Inhibition of HSP90 extracted from Candida albicans SC5314 lysate using FITC-Geldanamycin as substrate incubated for 6 hrs by fluorescence polarization assay; type: subcellular
Sequence of Heat shock protein 90 homolog (P46598 whole entry): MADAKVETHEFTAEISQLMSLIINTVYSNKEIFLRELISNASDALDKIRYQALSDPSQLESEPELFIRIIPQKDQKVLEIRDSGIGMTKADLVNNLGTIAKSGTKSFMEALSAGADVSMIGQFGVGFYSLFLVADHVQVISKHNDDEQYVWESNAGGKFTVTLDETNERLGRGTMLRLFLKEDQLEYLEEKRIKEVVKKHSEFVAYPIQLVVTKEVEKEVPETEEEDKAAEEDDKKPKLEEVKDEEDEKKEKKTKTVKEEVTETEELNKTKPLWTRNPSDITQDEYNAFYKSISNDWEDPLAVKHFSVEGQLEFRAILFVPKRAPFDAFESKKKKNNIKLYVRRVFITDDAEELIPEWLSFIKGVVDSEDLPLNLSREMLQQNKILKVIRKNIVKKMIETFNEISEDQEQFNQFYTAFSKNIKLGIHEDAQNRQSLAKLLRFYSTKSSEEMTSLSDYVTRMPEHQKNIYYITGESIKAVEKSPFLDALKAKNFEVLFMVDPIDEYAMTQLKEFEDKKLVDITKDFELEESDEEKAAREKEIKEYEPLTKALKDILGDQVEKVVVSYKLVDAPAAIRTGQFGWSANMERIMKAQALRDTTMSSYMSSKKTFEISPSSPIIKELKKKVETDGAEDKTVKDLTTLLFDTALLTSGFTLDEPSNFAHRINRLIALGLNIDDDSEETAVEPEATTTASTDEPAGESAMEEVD

Candida albicans [35] = assay: Antifungal activity against Candida albicans SC5314 assessed as fungal growth inhibition at 4 ug/ml incubated for 48 hrs; type: functional, organism-based; conditions: dose 4.0 µg/ml
Candida albicans [36] = assay: Antifungal activity against Candida albicans SC5314 incubated for 48 hrs by CLSI based liquid microdilution technique; type: functional

CCN(C(=O)c1cc(-c2ccc(C)cc2)c(O)cc1O)c1ccc(CN2CCN(CC(O)(Cn3cncn3)c3ccc(F)cc3F)CC2)cc1 (centres undefined)
IC50 at 72 h [1]: 2.1 µM
inhibition at 0.5 µg/mL (Candida albicans [2]): > 50%
inhibition at 8 µg/mL (Candida albicans [3]): 100%
Activity (Candida albicans [4]): Active
MIC80 (Pichia kudriavzevii): 16 µg/mL (≈ 23.4 µM)
IC50 at 72 h [5]: 2.1 µM
Activity (Candida albicans [6]): Active
inhibition at 32 µg/mL (Candida albicans [7]): ~100%
inhibition (INH) [8]: Active
inhibition (INH) [9]: Active
Activity (Candida albicans [10]): Active
Activity (Candida albicans [11]): 5.47 log10CFU/ml
Activity (Candida albicans [12]): 7.39 log10CFU/ml
MIC80 (Candida albicans [13]): 0.004 µg/mL (≈ 0.00586 µM)
inhibition (INH) [14]: Active
Activity (Candida albicans [15]): 6.14 log10CFU/ml
Ratio (Candida albicans [16]): 16
Activity (Candida albicans [17]): 5.83 log10CFU/ml
inhibition (INH) [18]: Active
inhibition (Candida albicans [19]): Dose-dependent-effect; Result Indicated That Compound Was More Potent Than Flc
inhibition (Candida albicans [20]): Active; Inhibitory Effect Was Superior Than Flc
inhibition (INH) [21]: Active
MIC80 (Cryptococcus neoformans): 4 µg/mL (≈ 5.86 µM)
Activity (Candida albicans [22]): Active
Activity (Candida albicans [23]): Active
Activity (Candida albicans [24]): Active
inhibition (Candida albicans [25]): Active; Activity Was Superior Than Flc
Activity (Candida albicans [26]): Dose-dependent-effect
inhibition at 32 µg/mL (Candida albicans [27]): 100%
Activity (Candida albicans [28]): Active
Activity (Candida albicans [29]): Active
MIC80 (Nakaseomyces glabratus): 8 µg/mL (≈ 11.7 µM)
inhibition at 4 µg/mL (Candida albicans [30]): > 80%
Activity (Candida albicans [31]): Active
inhibition (Candida albicans [32]): Dose-dependent-effect
Activity (Candida albicans [33]): Active
IC50 (Heat shock protein HSP90): 6.63 µM
IC50 [34]: 0.74 µM
inhibition (Candida albicans [35]): Active; Activity Was Superior Than Flc
MIC80 (Candida albicans [36]): 0.063 µg/mL (≈ 0.0923 µM)

CCN(C(=O)c1cc(-c2ccc(C)cc2)c(O)cc1O)c1ccc(CN2CCN(C(=O)CCCOc3ccc(CN(C)CC(O)(Cn4cncn4)c4ccc(F)cc4F)cc3)CC2)cc1 (centres undefined)
MIC80 (Pichia kudriavzevii): 16 µg/mL (≈ 18 µM)
MIC80 (Cryptococcus neoformans): 4 µg/mL (≈ 4.5 µM)
MIC80 (Nakaseomyces glabratus): 16 µg/mL (≈ 18 µM)
MIC80 (Candida albicans [36]): 8 µg/mL (≈ 9.01 µM)
